Experiment [1] can be described thus: Antagonist activity against human P2X4R stably transfected in human 1321N1 cells assessed as ATP EC50 at 0.1 uM incubated for 30 mins by Fura-2 AM staining based calcium influx assay.
Experiment [2] is described as follows: Antagonist activity against human P2X4R stably transfected in human 1321N1 cells assessed as ATP EC50 at 0.2 uM incubated for 30 mins by Fura-2 AM staining based calcium influx assay.
A short description of experiment [3]: Antagonist activity against human P2X4R stably transfected in human 1321N1 cells assessed as ATP EC50 at 0.05 uM incubated for 30 mins by Fura-2 AM staining based calcium influx assay.
Experiment [4] in a line: Antagonist activity against human P2X7R stably transfected in human 1321N1 cells assessed as BzATP EC50 at 0.1 uM incubated for 30 mins by Fura-2 AM staining based calcium influx assay.
A short description of experiment [5]: Antagonist activity against human P2X7R stably transfected in human 1321N1 cells assessed as BzATP EC50 at 0.2 uM incubated for 30 mins by Fura-2 AM staining based calcium influx assay.
Experiment [6] can be described thus: Antagonist activity against human P2X7R stably transfected in human 1321N1 cells assessed as BzATP EC50 at 0.05 uM incubated for 30 mins by Fura-2 AM staining based calcium influx assay.

Results on two compounds are retold here after BindingDB's records for PubMed 35660250 (COMSATS University Islamabad, 2022).

SMILES strings stand for the structures.

As to `O=C(NC(=S)Nc1c(Br)ccc(C(F)(F)F)c1Br)c1ccc2c(c1)OCO2`, the EC50 was 10.1 µM in experiment [1], 10.8 µM in experiment [2] and 10.8 µM in experiment [3].

Turning to `O=C(NC(=S)Nc1cccc2cccnc12)c1ccc2c(c1)OCO2`, the concentration for a half-maximal effect (EC50) in experiment [4] worked out at 9.44 µM; in experiment [5] it was 9.14 µM; in experiment [6] it was 8.31 µM.
